Results taken from patent US11684682B2, “Chelating AAZTA conjugates and complexes thereof” (BRACCO IMAGING S.P.A., priority 2018, dated 2023).
Read-outs that look alike come from different tables or passages of the source. Each block holds one molecule with its values, some of them ahead of it.

Tests used:
[1] = 0.15 M NaCl, 25° C.; cited from earlier work
[2] = Equilibrium study of Bi(AAZTA): competition of AAZTA with NTA for Bi^3+ by UV-spectrophotometry; format: physicochemical; conditions: 0.15 M NaClO4
Procedure: The stability constant of Bi(AAZTA) was determined by following the competition reaction of AAZTA with NTA for Bi^3+ (Eq. (10)) with UV-spectrophotometry in the wavelength range of 210-350 nm. The concentration of Bi^3+ and NTA was 30.2 μM and 10 mM while that of the AAZTA was varied between 0 and 50 μM (6×2 mL samples with the addition of AAZTA to the pre-prepared Bi(NTA)2 complex) in 0.15 M NaClO4 solution. The pH was adjusted to pH=7.4 by stepwise addition of concentrated NaOH or HClO4. The samples were kept at 50° C. for a week and at 25° C. for two weeks in order to attain the equilibrium (the time needed to reach the equilibria was determined by spectrophotometry). The spectrophotometric measurements were made with the use of PerkinElmer Lambda 365 UV-Vis spectrophotometer at 25° C., using 1.0 cm cells. For the equilibrium calculation, the protonation constants of AAZTA and NTA ligands (AAZTA: log K1^H=10.29, log K2^H=6.51, log K3^H=3.86, log K4^H=1.94, log K5^H=1.00; NTA: log K1^H=9.22, log K2^H=2.98, log K3^H=1.06; 25° C., 0.15 M NaClO4) and the stability constants of Bi(NTA) and Bi(NTA)2 complexes (log KBi(NTA)=16.97, log βBi(NTA)2=26.21, 25° C., 0.15 M NaClO4) have been determined as it is described in the literature (Baranyai, Eur. J. Inorg. Chem., 2013, 147-162, KARADAKOV, Talanta, 1970, 17, 883-887). The equilibrium constants were calculated with the program PSEQUAD (L. Zekany and I. Nagypal in PSEQUAD, Vol. (Ed. D. Leggett), Springer US, 1985, pp. 291-353). Bi(NTA)2+HxAAZTA ? Bi(AAZTA)+2HyNTA (10) Thermodynamic stability constant of Bi(AAZTA) calculated from the UV-spectrophotometric studies of Bi^3+-NTA-AAZTA systems is log KBi(AAZTA)=26.45 (6) at 25° C. in 0.15 M NaClO4. By taking into account the protonation constant of AAZTA ligand (log K1^H=10.29, log K2^H=6.51, log K3^H=3.86, log K4^H=1.94, log K5^H=1.00, 25° C., 0.15 M NaClO4) and the stability constant of Bi(AAZTA) (log KBi(AAZTA)=26.45, 25° C. in 0.15 M NaClO4), the conditional stability constant of Bi(AAZTA) was calculated to be log K^condBi(AAZTA)=log KBi(AAZTA)/(1+αH)=23.5 at pH=7.4 and 25° C. in 0.15 M NaClO4 (αH=K1^H[H^+]+K1^HK2^H[H^+]^2+ . . . +K1^HK2^H . . . Kn^H[H^+]^n and K1^H, K2^H, . . . Kn^H are the protonation constant of the free ligand at pH=7.4 in 0.15 M NaClO4 solution).

[3] = Transchelation reaction between Bi(AAZTA) and DTPA by UV-spectrophotometry; format: physicochemical; conditions: pH=9.0, 25° C., 0.15 M NaClO4
Procedure: The kinertic properties of Bi(AAZTA) was determined by following the transchelation reaction between Bi(AAZTA) and DTPA with UV-spectrophotometry at 278 nm and 25° C. in 0.15 M NaClO4 solution (stability constant of Bi(DTPA) is log KBi(DTPA)=29.3 at 25° C. in 0.6 M NaClO4, V. Kornev, A. Troubachev, Russ. J. Inorg. Chem, 1987, 32, 1419). In these experiments the concentration of Bi(AAZTA) was 0.1 mM while DTPA was applied in 10 and 20 fold excess to ensure the occurrence of pseudo-first order conditions. The pH was adjusted to 8.5, 9.0, 9.5, 10.0, 10.5 and 11.0 by stepwise addition of concentrated NaOH or HClO4. For keeping the pH values constant 0.01 M N-methyl-piperazine (pH≤10) buffers were used. At pH>10, buffer was not used to keep the constant pH due to the presence of OH^− in a high concentration. The pseudo-first-order rate constants (kd) were calculated by fitting the absorbance—time data sets for Bi(AAZTA)—DTPA system to Eq. (9). The dissociation rates (kd) of Bi(AAZTA) complex is independent from the [DTPA] and increase with the increase of pH.

[4] = format: physicochemical; conditions: 25° C., 0.15 M NaCl
Excerpt: The thermodynamic properties of Sc(AAZTA-TATE) complex were characterized by the conditional stability constant (log K^cond=log K^therm/(1+αH) where αH=K1^H[H^+]+K1^HK2^H[H^+]^2+ . . . +K1^HK2^H . . . Kn^H[H^+]^n and K1^H, K2^H, . . . Kn^H are the protonation constant of the free ligand) at pH=7.4 in 0.15 M NaCl solution. To determine the log K^cond value of Sc(AAZTA-TATE) complex, the competition reaction of AAZTA-TATE with NTA for Sc^3+ have been studied by ^45Sc NMR spectroscopy (Bruker Avance III 400 spectrometer at 9.4 T) with the integral of Sc(NTA)2 complex (δSc=59.9 ppm) formed in the reactions (Eq. (4), H3NTA=nitrilo-triacetic acid, pH=7.4, 25° C., 0.15 M NaCl).
[formula] For the equilibrium characterization of Sc(AAZTA-TATE), 7 samples were prepared in which the concentration of Sc^3+ and AAZTA-TATE was 203.3 μM and 206.2 μM, while that of the NTA was varied between 0.0 and 20.06 mM (7×1 mL samples were prepared by the addition of AAZTA-TATE to the pre-prepared Sc(NTA)2 complex) in 0.15 M NaCl solution. […] The samples were kept at 25° C. for 8 weeks in order to attain the equilibrium (the time needed to reach the equilibria was determined by ^45Sc NMR spectroscopy).
To compare the equilibrium properties of Sc(AAZTA-TATE) with that of Sc(AAZTA), the conditional stability constant of Sc(AAZTA) was determined by following the competition reaction of AAZTA with NTA for Sc^3+ with ^45Sc NMR spectroscopy by using the integral of Sc(NTA)2 complex (δSc=59.9 ppm) formed in the reactions (Eq. (5), pH=7.4, 25° C., 0.15 M NaCl).
For the equilibrium characterization of Sc(AAZTA), 7 samples were prepared in which the concentration of Sc^3+ and AAZTA was 203.3 μM and 207.1 μM, while that of the NTA was varied between 0 and 20.06 mM (7×2 mL samples with the addition of AAZTA to the pre-prepared […] complex) in 0.15 M NaCl solution. […] The samples were kept at 25° C. for 8 weeks in order to attain the equilibrium (the time needed to reach the equilibria was determined by ^45Sc NMR spectroscopy). […]

log K1^H (protonation constant) ([2]; 25° C.): 10.29
log K2^H (protonation constant) ([2]; 25° C.): 6.51
log K3^H (protonation constant) ([2]; 25° C.): 3.86
log K4^H (protonation constant) ([2]; 25° C.): 1.94
log K5^H (protonation constant) ([2]; 25° C.): 1.00
SMILES: CC1(N(CC(=O)O)CC(=O)O)CN(CC(=O)O)CCN(CC(=O)O)C1 [AAZTA, 6-amino-6-methylperhydro-1,4-diazepinetetraacetic acid]
log K1^H (protonation constant) [1]: 9.98
log K2^H (protonation constant) [1]: 6.52
log K3^H (protonation constant) [1]: 3.76
log K4^H (protonation constant) [1]: 2.21

log KBi(AAZTA) (thermodynamic stability constant) ([2]; 25° C.): 26.45 (6)
log K^cond (conditional stability constant) ([2]; pH=7.4, 25° C.): 23.5
SMILES: CC1(N(CC(=O)[O-])CC(=O)[O-])CN(CC(=O)[O-])CCN(CC(=O)[O-])C1.[Bi+3] [Bi(AAZTA)]
kd (rate constant of dissociation) [3]: 1.67e-06 s⁻¹

log K1^H (protonation constant) [4]: 9.13 (1)
log K2^H (protonation constant) [4]: 2.63 (2)
log K3^H (protonation constant) [4]: 1.64 (3)
log K1^H (protonation constant) ([2]; NTA ligand, 25° C.): 9.22
log K2^H (protonation constant) ([2]; NTA ligand, 25° C.): 2.98
log K3^H (protonation constant) ([2]; NTA ligand, 25° C.): 1.06
SMILES: O=C(O)CN(CC(=O)O)CC(=O)O [NTA, nitrilo-triacetic acid, reference compound]
